4 compounds from ChEMBL document CHEMBL1151883, “Design and synthesis of bisenediyne bissulfones and their reactivity under basic condition” (Bioorg Med Chem Lett, 2009) can be followed below.

Calls of active or inactive are those of the source. No cut-off for these calls is given here.

What all share (type): nucleic-acid assay
Holding throughout (conditions): Escherichia coli

For assay [1], the system named is Nucleic Acid. In words: Induction of supercoiled pBR322 DNA cleavage at PH 7.2 after 16 hrs at 37 degC in presence of triethylamine.
Assay [2] deals with Nucleic Acid. In words: Induction of supercoiled pBR322 DNA cleavage at PH 7.2 after 8 hrs at 37 degC in presence of triethylamine.
In assay [3] the test system is Nucleic Acid. In words: Induction of supercoiled pBR322 DNA cleavage at PH 7.2 after 8 hrs at 37 degC in absence of triethylamine.
Assay [4] relates to Nucleic Acid. Kind of assay: Induction of supercoiled pBR322 DNA cleavage at PH 7.2 after 16 hrs at 37 degC in absence of triethylamine.

On to `O=S(=O)(CC#Cc1ccccc1C#Cc1ccccc1C#CCS(=O)(=O)c1ccccc1)c1ccccc1`, for which the Activity in the assay with Nucleic Acid [1] and in the assay with Nucleic Acid [2] was 45% each time.
In the case of `O=S(=O)(CC#Cc1ccccc1C#CC#Cc1ccccc1C#CCS(=O)(=O)c1ccccc1)c1ccccc1`, the Activity was determined as 62% with Nucleic Acid [1] and 47% in the assay with Nucleic Acid [2].
Consider `O=S(=O)(C=C=Cc1ccccc1C#CC#Cc1ccccc1C#CCS(=O)(=O)c1ccccc1)c1ccccc1`, for which the outcome in the assay with Nucleic Acid [3] and in the assay with Nucleic Acid [4] was Active.
Turning to `O=S(=O)(C=C=Cc1ccccc1C#Cc1ccccc1C#CCS(=O)(=O)c1ccccc1)c1ccccc1`, the outcome in the assay with Nucleic Acid [3] and with Nucleic Acid [4] was Active.
